# Measured values as given in ChEMBL document CHEMBL3351362, “In vitro antiparasitic activity of new thiosemicarbazones in strains of Trypanosoma cruzi” (Eur J Med Chem, 2014).
# Assays:
# Trypanosoma cruzi [1] = assay: Trypanocidal activity against epimastigote forms of Trypanosoma cruzi Punta Lobos after 24 hrs; assay type: functional
# Trypanosoma cruzi [2] = assay: Trypanocidal activity against epimastigote forms of Trypanosoma cruzi Queretaro after 24 hrs; assay type: functional
# [3] = Induction of apoptosis in human monocytes assessed as viable cells using Annexin V/propidium iodide by flow cytometry (reference value: 97.53 %); assay type: cell-based, Monocyte; conditions: read-out: Activity
# [4] = Induction of apoptosis in human monocytes assessed as early apoptotic cells using Annexin V/propidium iodide by flow cytometry (reference value: 2.18 %); assay type: cell-based; conditions: monocyte
# [5] = Induction of apoptosis in human monocytes assessed as late apoptotic cells using Annexin V/propidium iodide by flow cytometry (reference value: 0.27 %); assay type: cell-based; conditions: monocyte
# [6] = Induction of apoptosis in human monocytes assessed as necrotic cells using Annexin V/propidium iodide by flow cytometry (reference value: 0.02 %); assay type: cell-based; conditions: monocyte
# [7] = Induction of apoptosis in human platelets assessed as viable cells after 10 mins using Annexin V/propidium iodide by flow cytometry (reference value: 89.61 %); assay type: cell-based, Platelet; conditions: read-out: Activity
# [8] = Induction of apoptosis in human platelets assessed as early apoptotic cells after 10 mins using Annexin V/propidium iodide by flow cytometry (reference value: 10.30 %); assay type: cell-based; conditions: platelet
# [9] = Induction of apoptosis in human platelets assessed as late apoptotic cells after 10 mins using Annexin V/propidium iodide by flow cytometry (reference value: 0.02 %); assay type: cell-based; conditions: platelet
# [10] = Induction of apoptosis in human platelets assessed as necrotic cells after 10 mins using Annexin V/propidium iodide by flow cytometry (reference value: 0.07 %); assay type: cell-based; conditions: platelet
# [11] = Activation of human platelets assessed as CD62P expression at 3.9 ug/ml by flow cytometry relative to control; assay type: cell-based; conditions: platelet
SMILES,LC50 (Trypanosoma cruzi [1]),LC50 (Trypanosoma cruzi [2]),viability [3],Activity [4],Activity [5],Activity [6],viability at 10 min [7],Activity [8],Activity [9],Activity [10],Activity [11]
NC(=S)N/N=C/c1ccc(Sc2ccccc2C(F)(F)F)o1,11.4 µg/mL,14 µg/mL,70.7%,26.47%,2.63%,0.24%,82.6%,17.31%,0.06%,0.05%,22.14%
NC(=S)N/N=C/c1ccc(Sc2cccc(C(F)(F)F)c2)o1,17.8 µg/mL,7.8 µg/mL,66.7%,22.9%,7.87%,2.57%,90.9%,8.87%,0.05%,0.17%,19.06%
NC(=S)N/N=C/c1ccc(Sc2ccc(C(F)(F)F)cc2)o1,8.3 µg/mL,29.5 µg/mL,72.9%,21.44%,4.48%,1.18%,79.4%,20.39%,0.08%,0.16%,18.56%
NC(=S)N/N=C/c1ccc(Sc2ccc(C(F)(F)F)cc2[N+](=O)[O-])o1,3.2 µg/mL,3.4 µg/mL,79.4%,17.05%,2.81%,0.7%,87.2%,12.48%,0.24%,0.09%,23.63%
NC(=S)N/N=C/c1ccc(Sc2c(F)c(F)c(C(F)(F)F)c(F)c2F)o1,5.1 µg/mL,4.6 µg/mL,72.7%,21.91%,4.76%,0.62%,87.4%,12.55%,0.03%,0.04%,23.35%
O=C(Cn1ccnc1[N+](=O)[O-])NCc1ccccc1 [BENZNIDAZOLE],4 µg/mL,6.5 µg/mL,75.9%,18.79%,4.78%,0.51%,76.9%,22.95%,0.02%,0.12%,42.51%
CN(C)c1ccc(C(=C2C=CC(=[N+](C)C)C=C2)c2ccc(N(C)C)cc2)cc1.[Cl-] [GENTIAN VIOLET],15.8 µg/mL,6.2 µg/mL,,,,,,,,,
